# According to patent US12071425B2 (Genentech, Inc., priority 2018, dated 2024):
# Counter-ions that a name gives are not always drawn.
# Target: kinase domain of IRE1 alpha (His-tagged kinase dead construct KR, AA G547-L977, D688N) (Homo sapiens (Human), UniProt O75460, D688N)
# Assay: IRE1α TR-FRET competition binding assay
# Conditions: competition with Kinase Tracer 236, 0.1 μM; one hour at room temperature
# Outline: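 Sf9-expressed kinase-dead KR construct (0.006 μM final) pre-incubated 1 h at 4° C with Eu anti-His antibody (0.002 μM) in HEPES pH 7.5/MgCl2/Brij/DTT buffer; Kinase Tracer 236 (ATP-competitive probe, 0.1 μM final) added with compound. 1 h at room temperature; tracer displacement read by TR-FRET (665/615 nm).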
# Chain of kinase domain of IRE1 alpha (His-tagged kinase dead construct KR, AA G547-L977, D688N) (O75460 547-977 D688N): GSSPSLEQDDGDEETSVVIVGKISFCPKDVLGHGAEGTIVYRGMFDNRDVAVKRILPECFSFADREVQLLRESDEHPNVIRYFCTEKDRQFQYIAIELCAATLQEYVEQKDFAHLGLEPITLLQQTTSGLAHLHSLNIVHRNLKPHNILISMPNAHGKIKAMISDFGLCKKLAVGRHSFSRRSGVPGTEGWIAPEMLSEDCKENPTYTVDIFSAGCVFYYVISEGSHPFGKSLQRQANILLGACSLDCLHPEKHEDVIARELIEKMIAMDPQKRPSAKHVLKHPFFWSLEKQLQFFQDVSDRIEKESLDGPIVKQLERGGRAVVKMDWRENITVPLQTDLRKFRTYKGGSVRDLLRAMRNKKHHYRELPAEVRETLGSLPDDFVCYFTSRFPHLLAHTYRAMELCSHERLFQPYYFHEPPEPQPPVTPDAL
row,IC50 [nM],SMILES
1,2.9,"N#Cc1ccccc1CS(=O)(=O)Nc1ccc(Oc2ncccc2-c2ccnc(N[C@H]3CCCNC3)n2)c(F)c1F [Compound 187, (S)-1-(2-cyanophenyl)-N-(2,3-difluoro-4-((3-(2-(piperidin-3-ylamino)pyrimidin-4-yl)pyridin-2-yl)oxy)phenyl)methanesulfonamide]"
2,11,"O=S(=O)(CC1(F)CC1)Nc1ccc(Oc2ncccc2-c2ccnc(N[C@H]3CCCNC3)n2)c(F)c1F [Compound 188, (S)-N-(2,3-difluoro-4-((3-(2-(piperidin-3-ylamino)pyrimidin-4-yl)pyridin-2-yl)oxy)phenyl)-1-(1-fluorocyclopropyl)methanesulfonamide]"
3,5,"CCC(F)(F)CS(=O)(=O)Nc1c(F)cc(Oc2ncccc2-c2ccnc(N[C@@H]3CNC[C@@H](F)C3)n2)c(F)c1F [Compound 189, 2.2-difluoro-N-(2,3,6-trifluoro-4-((3-(2-(((3S,5S)-5-fluoro-3-piperidyl)amino)pyrimidin-4-yl)-2-pyridyl)oxy)phenyl)butane-1-sulfonamide]"
4,4.7,"C[C@@]1(F)CNC[C@@H](Nc2nccc(-c3cccnc3Oc3cc(F)c(NS(=O)(=O)Cc4ccccc4)c(F)c3F)n2)C1 [Compound 190, 1-Phenyl-N-(2,3,6-trifluoro-4-((3-(2-(((3S,5S)-5-fluoro-5-methyl-3-piperidyl)amino)pyrimidin-4-yl)-2-pyridyl)oxy)phenyl)methanesulfonamide]"
5,4.3,"N#Cc1ccc(CS(=O)(=O)Nc2c(F)cc(Oc3ncccc3-c3ccnc(N[C@@H]4CNC[C@@H](F)C4)n3)c(F)c2F)cc1 [Compound 191, 1-(4-cyanophenyl)-N-(2,3,6-trifluoro-4-((3-(2-(((3S,5S)-5-fluoropiperidin-3-yl)amino)pyrimidin-4-yl)pyridin-2-yl)oxy)phenyl)methanesulfonamide]"
6,9.7,"O=S(=O)(CC1CCC1(F)F)Nc1ccc(Oc2ncccc2-c2ccnc(N[C@H]3CCCNC3)n2)c(F)c1F (stereo partly drawn) [Compound 192, N-(2,3-difluoro-4-((3-(2-(((S)-piperidin-3-yl)amino)pyrimidin-4-yl)pyridin-2-yl)oxy)phenyl)-1-(2,2-difluorocyclobutyl)methanesulfonamide hydrochloride]"
7,33,"O=S(=O)(Cc1ccccc1)Nc1c(F)cc(Oc2ncccc2-c2ccnc(N[C@H]3CNC[C@H](F)C3)n2)c(F)c1F [Compound 193, 1-phenyl-N-(2,3,6-trifluoro-4-((3-(2-(((3R,5R)-5-fluoro-3-piperidyl)amino)pyrimidin-4-yl)-2-pyridyl)oxy)phenyl)methanesulfonamide]"
8,4,"CCC(F)(F)CS(=O)(=O)Nc1c(F)cc(Oc2ncccc2-c2ccnc(N[C@H]3CCCNC3)n2)c(F)c1F [Compound 194, (S)-2,2-difluoro-N-(2,3,6-trifluoro-4-((3-(2-(piperidin-3-ylamino)pyrimidin-4-yl)pyridin-2-yl)oxy)phenyl)butane-1-sulfonamide]"
9,4.6,"Cc1cc(CS(=O)(=O)Nc2c(F)cc(Oc3ncccc3-c3ccnc(N[C@H]4CCCNC4)n3)c(F)c2F)no1 [Compound 195, (S)-1-(5-methylisoxazol-3-yl)-N-(2,3,6-trifluoro-4-((3-(2-(piperidin-3-ylamino)pyrimidin-4-yl)pyridin-2-yl)oxy)phenyl)methanesulfonamide]"
10,2.5,"O=S(=O)(Cc1ccc(C(F)(F)F)nc1)Nc1c(F)cc(Oc2ncccc2-c2ccnc(N[C@H]3CCCNC3)n2)c(F)c1F [Compound 196, (S)-N-(2,3,6-trifluoro-4-((3-(2-(piperidin-3-ylamino)pyrimidin-4-yl)pyridin-2-yl)oxy)phenyl)-1-(6-(trifluoromethyl)pyridin-3-yl)methanesulfonamide]"
11,490,"O=C(NCc1cccc(Oc2ncccc2-c2ccnc(N[C@H]3CCCNC3)n2)c1F)C1CC1 [Compound 197, (S)—N-(2-Fluoro-3-((3-(2-(piperidin-3-ylamino)pyrimidin-4-yl)pyridin-2-yl)oxy)benzyl)cyclopropanecarboxamide]"
12,4.4,"C[C@@]1(F)CNC[C@@H](Nc2nccc(-c3cccnc3Oc3cc(F)c(NS(=O)(=O)CC4CCC4)c(F)c3F)n2)C1 [Compound 202, 1-cyclobutyl-N-(2,3,6-trifluoro-4-((3-(2-(((3S,5S)-5-fluoro-5-methylpiperidin-3-yl)amino)pyrimidin-4-yl)pyridin-2-yl)oxy)phenyl)methanesulfonamide]"
13,3.3,"Cc1cc(CS(=O)(=O)Nc2c(F)cc(Oc3ncccc3-c3ccnc(N[C@@H]4CNC[C@@](C)(F)C4)n3)c(F)c2F)no1 [Compound 203, 1-(5-methylisoxazol-3-yl)-N-(2,3,6-trifluoro-4-((3-(2-(((3S,5S)-5-fluoro-5-methylpiperidin-3-yl)amino)pyrimidin-4-yl)pyridin-2-yl)oxy)phenyl)methanesulfonamide]"
14,4.1,"Cc1cc(CS(=O)(=O)Nc2c(F)cc(Oc3ncccc3-c3ccnc(N[C@@H]4CNC[C@@H](F)C4)n3)c(F)c2F)no1 [Compound 204, 1-(5-methylisoxazol-3-yl)-N-(2,3,6-trifluoro-4-((3-(2-(((3S,5S)-5-fluoropiperidin-3-yl)amino)pyrimidin-4-yl)pyridin-2-yl)oxy)phenyl)methanesulfonamide]"
15,4.4,"O=S(=O)(CCC(F)(F)F)Nc1c(F)cc(Oc2ncccc2-c2ccnc(N[C@@H]3CNC[C@@H](F)C3)n2)c(F)c1F [Compound 205, 3,3,3-trifluoro-N-(2,3,6-trifluoro-4-((3-(2-(((3S,5S)-5-fluoro-3-piperidyl)amino)pyrimidin-4-yl)-2-pyridyl)oxy)phenyl)propane-1-sulfonamide]"
16,8.2,"O=S(=O)(Nc1ccc(Oc2ncccc2-c2ccnc(N[C@H]3CCCNC3)n2)c(F)c1F)c1cc(F)cc(F)c1 [Compound 206, N-[2,3-Difluoro-4-[[3-[2-[[(3S)-3-piperidyl]amino]pyrimidin-4-yl]-2-pyridyl]oxy]phenyl]-3,5-difluoro-benzenesulfonamide]"
17,7.4,"O=S(=O)(Nc1ccc(Oc2ncccc2-c2ccnc(N[C@H]3CCCNC3)n2)c(F)c1F)c1cccc(OC(F)(F)F)c1 [Compound 207, (S)-N-(2,3-difluoro-4-((3-(2-(piperidin-3-ylamino)pyrimidin-4-yl)pyridin-2-yl)oxy)phenyl)-3-(trifluoromethoxy)benzenesulfonamide]"
18,11,"O=S(=O)(Nc1ccc(Oc2ncccc2-c2ccnc(N[C@H]3CCCNC3)n2)c(F)c1F)c1cccc(OC(F)F)c1 [Compound 208, (S)-N-(2,3-difluoro-4-((3-(2-(piperidin-3-ylamino)pyrimidin-4-yl)pyridin-2-yl)oxy)phenyl)-3-(difluoromethoxy)benzenesulfonamide]"
19,7.5,"O=S(=O)(CC1CC2(CCC2)C1)Nc1ccc(Oc2ncccc2-c2ccnc(N[C@H]3CCCNC3)n2)c(F)c1F [Compound 209, (S)-N-(2,3-difluoro-4-((3-(2-(piperidin-3-ylamino)pyrimidin-4-yl)pyridin-2-yl)oxy)phenyl)-1-(spiro[3.3]heptan-2-yl)methanesulfonamide]"
20,23,"CC(C)(C#N)CCS(=O)(=O)Nc1ccc(Oc2ncccc2-c2ccnc(N[C@H]3CCCNC3)n2)c(F)c1F [Compound 210, (S)-3-cyano-N-(2,3-difluoro-4-((3-(2-(piperidin-3-ylamino)pyrimidin-4-yl)pyridin-2-yl)oxy)phenyl)-3-methylbutane-1-sulfonamide]"
21,33,"COc1ccc(S(=O)(=O)Nc2ccc(Oc3ncccc3-c3ccnc(N[C@H]4CCCNC4)n3)c(F)c2F)cc1 [Compound 211, (S)-N-(2,3-difluoro-4-((3-(2-(piperidin-3-ylamino)pyrimidin-4-yl)pyridin-2-yl)oxy)phenyl)-4-methoxybenzenesulfonamide]"
22,25,"COc1cccc(S(=O)(=O)Nc2ccc(Oc3ncccc3-c3ccnc(N[C@H]4CCCNC4)n3)c(F)c2F)c1 [Compound 212, (S)-N-(2,3-difluoro-4-((3-(2-(piperidin-3-ylamino)pyrimidin-4-yl)pyridin-2-yl)oxy)phenyl)-3-methoxybenzenesulfonamide]"
23,5.9,"O=S(=O)(Cc1ccc(Cl)cc1)Nc1ccc(Oc2ncccc2-c2ccnc(N[C@H]3CCCNC3)n2)c(F)c1F [Compound 213, (S)-1-(4-chlorophenyl)-N-(2,3-difluoro-4-((3-(2-(piperidin-3-ylamino)pyrimidin-4-yl)pyridin-2-yl)oxy)phenyl)methanesulfonamide]"
24,44,"O=S(=O)(Nc1ccc(Oc2ncccc2-c2ccnc(N[C@H]3CCCNC3)n2)c(F)c1F)c1cccnc1 [Compound 214, (S)-N-(2,3-difluoro-4-((3-(2-(piperidin-3-ylamino)pyrimidin-4-yl)pyridin-2-yl)oxy)phenyl)pyridine-3-sulfonamide]"
25,11,"O=S(=O)(CCC1CCCCC1)Nc1ccc(Oc2ncccc2-c2ccnc(N[C@H]3CCCNC3)n2)c(F)c1F [Compound 215, (S)-2-cyclohexyl-N-(2,3-difluoro-4-((3-(2-(piperidin-3-ylamino)pyrimidin-4-yl)pyridin-2-yl)oxy)phenyl)ethane-1-sulfonamide]"
26,13,"CC(C)(CC#N)CS(=O)(=O)Nc1ccc(Oc2ncccc2-c2ccnc(N[C@H]3CCCNC3)n2)c(F)c1F [Compound 216, (S)-3-cyano-N-(2,3-difluoro-4-((3-(2-(piperidin-3-ylamino)pyrimidin-4-yl)pyridin-2-yl)oxy)phenyl)-2,2-dimethylpropane-1-sulfonamide]"
27,16,"O=S(=O)(CCC1CC1(F)F)Nc1ccc(Oc2ncccc2-c2ccnc(N[C@H]3CCCNC3)n2)c(F)c1F (stereo partly drawn) [Compound 217, N-(2,3-difluoro-4-((3-(2-(((S)-piperidin-3-yl)amino)pyrimidin-4-yl)pyridin-2-yl)oxy)phenyl)-2-(2,2-difluorocyclopropyl)ethane-1-sulfonamide]"
